Measurements from US20180185370A1, “PYRAZINOQUINAZOLINONE DERIVATIVES WITH ANTIBACTERIAL ACTIVITY, METHODS AND USES THEREOF” (UNIVERSIDADE DO PORTO, priority 2015, published 2018).
In brackets after ≈: the same amount, converted by molar mass.

Key:
[1] = test system: S. aureus ATCC 25923; assay: Antibacterial susceptibility testing, broth microdilution (MIC/MBC); type: cell-based, Staphylococcus aureus
Method: (§1) Bacterial strains and growth conditions. Five reference strains, Staphylococcus aureus ATCC 25923, Bacillus subtilis ATCC 6633, E. faecalis ATCC 29212, Escherichia coli ATCC 25922 and Pseudomonas aeruginosa ATCC 27853, and three multidrug-resistant isolates from environment, S. aureus B1 (a MRSA isolated from public buses), Enterococcus faecalis W1 (a VRE isolated from river water) and E. coli G1 (isolated from seagull feces) were used. Bacteria were grown overnight at 37° C. in Mueller-Hinton agar (MH—BioKar diagnostics, Allonne, France) prior to obtain be used in the subsequently described bioassays.
(§2) Antibacterial susceptibility testing. The minimum inhibitory concentration (MIC) values of the compounds of FIGS. 1D, 1E, 1G, 1H (equation i-iv) and 11 (equations v-x) were determined, in particular, by a broth microdilution technique, following the recommendations of the Clinical and Laboratory Standards Institute. Stock solutions of 10 mg/ml in DMSO were used to prepare in-test concentrations ranging from 2 to 256 μg/ml. Ciprofloxacin in the concentration range from 0.03125 to 16 μg/ml was used, in particular, as control drug in the experiment. The MIC was defined as the lowest concentration of compound that has inhibited the visible growth. The minimum bactericidal concentration (MBC) was determined by spreading on MH plates, 10 μL collected from the wells corresponding to the MIC and to higher concentrations, with further incubation for 24 h at 37° C.; the lowest concentration at which no growth occurred on MH was defined as the MBC.

[2] = test system: S. aureus B1 (MRSA); assay: as above; type: cell-based, Staphylococcus aureus; conditions: S. aureus B1 (MRSA)
Method: as §1, §2

[3] = test system: B. subtilis ATCC 6633; assay: as above; type: cell-based, Bacillus subtilis
Method: as §1, §2

[4] = test system: P. aeruginosa ATCC 27853; assay: Antibacterial susceptibility testing, broth microdilution (MIC); type: cell-based, Pseudomonas aeruginosa
Method: as §1, §2

[5] = test system: E. coli ATCC 25922; assay: as above; type: cell-based, Escherichia coli
Method: as §1, §2

[6] = test system: E. faecalis ATCC 29212; assay: Antibacterial susceptibility testing, broth microdilution (MIC/MBC); type: cell-based, Enterococcus faecalis
Method: as §1, §2

[7] = test system: E. faecalis W1 (VRE); assay: as above; type: cell-based, Enterococcus faecalis; conditions: E. faecalis W1 (VRE)
Method: as §1, §2

[8] = test system: S. aureus and E. faecalis strains; assay: Antibacterial susceptibility testing; type: cell-based
Method: as §1, §2

[9] = test system: S. aureus ATCC 25923, E. faecalis ATCC 29212, S. aureus B1 and E. faecalis W1; assay: Inhibition of biofilm formation, crystal violet assay; type: cell-based; conditions: for biofilm formation (biomass, crystal violet): 24 h
Method: The efficacy of neofiscalin A was also evaluated in hampering the biofilm formation. Neofiscalin A, in particular, at concentrations of 2×MIC, MIC, ½×MIC and ¼×MIC was added to bacterial suspensions of 1×10^6 CFU/ml in Tryptic Soy Broth (TSB—BioKar diagnostics, Allonne, France) of S. aureus ATCC 25923, E. faecalis ATCC 29212, S. aureus B1 and E. faecalis W1. Bacterial suspensions in absence of the compound were used as controls. Biofilm formation was induced, in particular, in 96-well flat-bottomed microtiter plates (200 μL/well) for 24 h at 37° C. After that time, biofilm biomass was quantified through the crystal violet assay as follows: the planktonic phase was discharged, then the biofilm was stained with 0.5% crystal violet for 5 min, rinsed with water, air dried and eluted with acetic acid 33% (v/v). The optical density was measured at 595 nm (0D595) using a microplate reader (iMark™ microplate absorbance reader, Bio-Rad Laboratories, Hercules, Calif., USA). Two independent experiments were performed in triplicate for each experimental condition. The statistical significance of the difference between biofilm controls and biofilms in the presence of different concentrations of compounds was evaluated using Student's t test. In both cases, probability levels <0.05 were considered statistically significant. Additionally, a microscopic visualization of the biofilms of S. aureus B1 and E. faecalis W1 was performed, in particular, using the Live/Dead BacLight viability kit (Life Technologies—Molecular Probes, Carlsbad, Calif., USA). Biofilms were formed, in particular, in 35-mm diameter polystyrene plates using TSB (control) and TSB supplemented with the MIC or ¼×MIC of neofiscalin A. After 24 h at 37° C., the planktonic phase was removed from each plate and the biofilms were washed with PBS, stained with the appropriate mixture of SYTO 9 and propidium iodide stains and incubated for 20 min at room temperature, in particular 20-25° C., in the dark; then, biofilms were rinsed and examined under a fluorescence microscope (BX41 Microscope, Olympus America Inc., Center Valley, Pa., USA). Images were recorded at an emission wavelength of 500 nm for SYTO 9 (green fluorescence) and of 635 nm for propidium iodide (red fluorescence).

[10] = test system: S. aureus B1 and E. faecalis W1; assay: Microscopic visualization of biofilms, Live/Dead staining; type: cell-based; conditions: 24 h
Method: The efficacy of neofiscalin A was also evaluated in hampering the biofilm formation. Neofiscalin A, in particular, at concentrations of 2×MIC, MIC, ½×MIC and ¼×MIC was added to bacterial suspensions of 1×10^6 CFU/ml in Tryptic Soy Broth (TSB—BioKar diagnostics, Allonne, France) of S. aureus ATCC 25923, E. faecalis ATCC 29212, S. aureus B1 and E. faecalis W1. Bacterial suspensions in absence of the compound were used as controls. Biofilm formation was induced, in particular, in 96-well flat-bottomed microtiter plates (200 μL/well) for 24 h at 37° C. After that time, biofilm biomass was quantified through the crystal violet assay as follows: the planktonic phase was discharged, then the biofilm was stained with 0.5% crystal violet for 5 min, rinsed with water, air dried and eluted with acetic acid 33% (v/v). The optical density was measured at 595 nm (0D595) using a microplate reader (iMark™ microplate absorbance reader, Bio-Rad Laboratories, Hercules, Calif., USA). Two independent experiments were performed in triplicate for each experimental condition. The statistical significance of the difference between biofilm controls and biofilms in the presence of different concentrations of compounds was evaluated using Student's t test. […] Images were recorded at an emission wavelength of 500 nm for SYTO 9 (green fluorescence) and of 635 nm for propidium iodide (red fluorescence).

[11] = test system: S. aureus B1; assay: Biofilm inhibitory and biofilm eradication concentrations on 24-h mature biofilms; type: cell-based, Staphylococcus aureus
Method: (§3) Determination of neofiscalin A biofilm inhibitory and biofilm eradication concentrations. The efficacy of neofiscalin A on 24-h mature biofilms of S. aureus B1 and E. faecalis W1 was also evaluated, in particular, by determining the BIC and the BEC. […] The optical density at 595 nm was measured at time 0 and after incubation for 24 h at 37° C. The BIC was determined as the lowest concentration of the compound inhibiting growth in the supernatant fluid, confirmed by no increase in the optical density compared with the initial reading. The BEC was determined as the lowest concentration that prevented regrowth of biofilm cells on tryptic soy agar plates.

[12] = test system: E. faecalis W1; assay: as above; type: cell-based, Enterococcus faecalis
Method: as §3

[13] = test system: S. aureus B1; assay: Biofilm metabolic activity after treatment, MTT; type: cell-based, Staphylococcus aureus; conditions: 24-h biofilms of S. aureus B1 treated for 24 h with 200 μg/ml
Method: (§4) Evaluation of the biofilm metabolic activity after treatment with different concentrations of neofiscalin A. Twenty four-hours biofilms of S. aureus B1 and E. faecalis W1 formed as above described were subsequently treated with high concentrations of neofiscalin A, in particular up to 25×MIC. After 24 h of incubation at 37° C., the bacterial metabolic activity of biofilms was quantified using the 3-(4,5-dimethylthiazole-2-yl)-2,5-diphenyl tetrazolium bromide (MTT, Sigma-Aldrich, St Louis, USA). MTT is used to assess cell viability as a function of redox potential. Actively respiring cells convert the water-soluble MU to an insoluble purple formazan. The formazan is then solubilized and its concentration determined by optical density. In this assay, biofilms were treated with MU (0.5 mg/ml) for 2 h at 37° C. in the dark. DMSO was used to extract the formazan dye product and then the absorbance at 550 nm was measured.

[14] = test system: E. faecalis W1; assay: Biofilm metabolic activity after treatment, MTT; type: cell-based, Enterococcus faecalis; conditions: 24-h biofilms of E. faecalis W1 treated for 24 h with 200 μg/ml
Method: as §4

Minimum inhibitory concentration-MIC [1]: 8 µg/mL (≈ 16.9 µM)
Minimum inhibitory concentration-MIC [2]: 8 µg/mL (≈ 16.9 µM)
Minimum inhibitory concentration-MIC [3]: 128 µg/mL (≈ 270 µM)
Minimum inhibitory concentration-MIC [4]: >256 µg/mL
Minimum inhibitory concentration-MIC [5]: >256 µg/mL
Minimum inhibitory concentration-MIC [6]: 8 µg/mL (≈ 16.9 µM)
Minimum inhibitory concentration-MIC [7]: 8 µg/mL (≈ 16.9 µM)
MIC value ([8]; S. aureus and E. faecalis strains, including multidrug-resistant isolates (MRSA, VRE)): 8 µg/mL (≈ 16.9 µM)
MBC relative to the MIC ([8]; Table 3 versus Table 2): usually four times higher than the MIC
SMILES: CC(C)[C@@H]1NC(=O)[C@@H](C[C@]2(O)c3ccccc3N3C(=O)[C@@H](C)N[C@H]32)n2c1nc1ccccc1c2=O [FIG. 1I (eq. ix), neofiscalin A]
Minimum bactericidal concentration-MBC [1]: 16 µg/mL (≈ 33.8 µM)
Minimum bactericidal concentration-MBC [2]: 32 µg/mL (≈ 67.6 µM)
Minimum bactericidal concentration-MBC [3]: >256 µg/mL
Minimum bactericidal concentration-MBC [6]: 32 µg/mL (≈ 67.6 µM)
Minimum bactericidal concentration-MBC [7]: 32 µg/mL (≈ 67.6 µM)
antibacterial activity ([8]; reference strains and multidrug-resistant isolates, highest concentration tested 256 μg/ml): presented antibacterial activity against Gram-positive bacteria
biofilm formation (biomass, crystal violet) ([9]; 2×MIC and MIC): none of the strains was able to form a biofilm
biofilm formation ([9]; MRSA and VRE strains): inhibit the biofilm formation
biofilm formation (biomass, crystal violet) ([9]; ¼×MIC): allowed the formation of a larger biofilm, but smaller than that observed in the control group
biofilm formation (biomass, crystal violet) ([9]; ½×MIC): the strains did not succeed in forming much biofilm
biofilm formation (Live/Dead microscopy) ([10]; at the MIC): no biofilm was produced
biofilm formation (Live/Dead microscopy) ([10]; ¼×MIC): a biofilm was formed (FIG. 4C), though it was not as large as in the control
biofilm inhibitory concentration (BIC) ([11]; 24-h biofilms of S. aureus B1 (MRSA)): 96 µg/mL
biofilm eradication concentration (BEC) ([11]; 24-h biofilms of S. aureus B1, higher than 25×MIC): > 200 µg/mL
biofilm inhibitory concentration (BIC) ([12]; 24-h biofilms of E. faecalis W1 (VRE)): 80 µg/mL
biofilm eradication concentration (BEC) ([12]; 24-h biofilms of E. faecalis W1, higher than 25×MIC): > 200 µg/mL
reduction of metabolic activity of biofilm (MTT) [13]: ~50%
reduction of metabolic activity of biofilm (MTT) [14]: ~50%
